Laboratory results taken from the NIST ThermoML archive (doi:10.1016/j.jct.2017.08.028).

Assay: molar heat capacity at constant pressure
Settings: 101.33 kPa, Crystal, Small (less than 1 g) adiabatic calorimetry

O[C@H]1[C@H](O)[C@@H](O)[C@H](O)[C@@H](O)[C@H]1O [cis-1,2,3,5-trans-4,6-cyclohexanehexol]
Settings | molar heat capacity at constant pressure [J/K/mol]
5 K | 0.095
6 K | 0.1967
7 K | 0.3623
8 K | 0.6094
8.37 K | 0.774
8.4 K | 0.78
8.51 K | 0.803
8.64 K | 0.841
8.77 K | 0.885
8.91 K | 0.93
9 K | 0.9596
9.05 K | 0.977
9.2 K | 1.034
9.34 K | 1.096
9.5 K | 1.162
9.65 K | 1.224
9.81 K | 1.296
9.98 K | 1.381
10 K | 1.387
10.17 K | 1.467
10.39 K | 1.577
10.59 K | 1.677
10.81 K | 1.817
11.05 K | 1.945
11.28 K | 2.084
11.52 K | 2.218
11.76 K | 2.363
12 K | 2.535
12.25 K | 2.7
12.5 K | 2.861
12.75 K | 3.034
13.01 K | 3.189
13.27 K | 3.362
13.53 K | 3.524
13.81 K | 3.727
14.08 K | 3.897
14.35 K | 4.078
14.63 K | 4.226
14.91 K | 4.431
15 K | 4.502
15.19 K | 4.618
15.47 K | 4.81
15.75 K | 4.99
16.04 K | 5.208
16.32 K | 5.4
16.61 K | 5.588
16.9 K | 5.795
17.2 K | 5.99
17.49 K | 6.202
17.78 K | 6.394
18.08 K | 6.622
18.37 K | 6.852
18.67 K | 7.06
18.97 K | 7.278
19.27 K | 7.496
19.57 K | 7.721
19.87 K | 7.949
20 K | 8.03
20.46 K | 8.428
21.33 K | 9.104
22.21 K | 9.711
23.1 K | 10.41
24 K | 11.09
24.9 K | 11.77
25 K | 11.83
25.81 K | 12.44
26.73 K | 13.12
27.66 K | 13.84
28.59 K | 14.6
30 K | 15.78
30.38 K | 16.06
31.42 K | 16.86
32.38 K | 17.74
33.35 K | 18.4
34.31 K | 19.3
35 K | 19.73
35.28 K | 20.02
36.25 K | 20.7
37.23 K | 21.47
38.21 K | 22.22
39.19 K | 22.99
40 K | 23.57
40.18 K | 23.66
41.16 K | 24.37
42.15 K | 25.13
43.15 K | 25.81
44.14 K | 26.63
45 K | 27.22
45.14 K | 27.34
46.17 K | 28.07
47.17 K | 28.86
48.17 K | 29.58
49.18 K | 30.39
50 K | 30.99
50.18 K | 31.12
51.2 K | 31.92
53.79 K | 33.97
54.97 K | 34.9
55.99 K | 35.65
57.01 K | 36.49
58.03 K | 37.34
59.05 K | 38.14
60 K | 38.84
60.07 K | 38.87
61.1 K | 39.73
62.12 K | 40.52
63.15 K | 41.35
64.17 K | 42.18
65.2 K | 43.06
66.23 K | 43.91
67.26 K | 44.68
68.29 K | 45.54
69.32 K | 46.48
70 K | 46.97
70.38 K | 47.25
71.85 K | 48.53
73.87 K | 50.14
75.89 K | 51.78
77.91 K | 53.41
78.79 K | 54.18
79.15 K | 54.64
79.8 K | 55.07
80 K | 55.23
80.92 K | 56.01
81.14 K | 56.14
83.15 K | 57.79
85.15 K | 59.59
87.15 K | 61.09
89.15 K | 62.93
90 K | 63.55
91.14 K | 64.62
93.14 K | 66.21
95.13 K | 67.8
97.12 K | 69.47
99.11 K | 71.03
100 K | 71.84
101.58 K | 73.24
104.56 K | 75.65
107.54 K | 78.02
110 K | 80.06
110.53 K | 80.42
113.53 K | 82.88
116.54 K | 85.33
119.54 K | 87.73
120 K | 88.17
122.54 K | 90.16
125.55 K | 92.54
128.56 K | 94.96
130 K | 96.15
131.58 K | 97.38
134.6 K | 99.81
137.62 K | 102.1
140 K | 104
140.65 K | 104.5
143.68 K | 106.9
146.71 K | 109.2
149.74 K | 111.6
150 K | 111.7
152.78 K | 113.9
155.81 K | 116.2
158.85 K | 118.6
160 K | 119.4
161.89 K | 120.9
164.97 K | 123.2
168.01 K | 125.5
170 K | 126.9
171.06 K | 127.7
174.1 K | 130
177.15 K | 132.3
180 K | 134.3
180.2 K | 134.4
183.25 K | 136.7
186.3 K | 138.9
189.35 K | 141.2
190 K | 141.7
192.4 K | 143.5
195.46 K | 145.6
198.52 K | 147.8
200 K | 149.1
201.57 K | 150.1
204.63 K | 152.3
208.19 K | 155.1
210 K | 156.4
212.26 K | 158
216.41 K | 161.2
220 K | 163.7
220.48 K | 164
224.57 K | 167.1
228.65 K | 170.1
230 K | 171.1
232.72 K | 173.2
236.81 K | 176.2
240 K | 178.5
240.91 K | 179.3
245 K | 182.3
249.09 K | 185.2
250 K | 185.9
253.18 K | 188.2
257.27 K | 191.3
260 K | 193.4
261.36 K | 194.4
265.46 K | 197.6
269.55 K | 200.6
270 K | 200.9
273.15 K | 203.2
273.64 K | 203.7
277.73 K | 206.6
280 K | 208.4
281.9 K | 210
285.98 K | 212.8
290 K | 216
290.07 K | 215.9
294.15 K | 219
298.15 K | 222.1
298.22 K | 222
300 K | 223.5
303.01 K | 226
308.39 K | 230
310 K | 231.1
313.76 K | 234
319.12 K | 237.9
320 K | 238.7
324.46 K | 241.9
329.77 K | 246
330 K | 246.2
335.05 K | 250.1
340 K | 253.7
340.3 K | 253.9
